Key:
[1] = test system: alkaline phosphatase (ALP); experiment: cells; settings: Mus musculus, C2C12, 96 h
From the text: (§1) To identify small-molecule activators of osteoblast differentiation, we measured ALP activity using a fluorescent emission assay as a reporter for enzymatic digestion of ALP substrate in lysates derived from C2C12 myoblasts. […] Therefore, before screening, the assay was calibrated using recombinant human BMP4 protein as a positive control. Compounds were robotically deposited onto 384-well plates and then overlaid by C2C12 cells for a 4-day culture period, followed by lysis and fluorescent substrate assays (FIG. 1A; Table 1). To ensure uniformity, C2C12 cells were maintained in normal culture medium containing 10% fetal bovine serum, and lysis and substrate addition achieved using a microplate multidrop device. The primary screen (Table 2) encompassed greater than 47,000 small molecules tested at a final concentration of 10 μM.
(§2) For the primary screen, library compounds were distributed onto 384-well microplates (Greiner Bio-One 781091) at a final concentration of 10 μM in culture medium using a Perkin Elmer Janus automated workstation and WinPrep Version 4.8.3.315. Positive (rhBMP4, 1 ng/ml, R&D Systems) and negative controls (DMSO, 0.2%) were manually added to each plate by multichannel pipet. C2C12 cells were seeded onto compounds and controls at a density of 2000/well using a Thermo Multidrop Combi reagent dispenser and cultured for 4 days at 37° C., 5% CO2. Culture medium was aspirated using a BioTek EL406 plate washer and cells were lysed in RIPA buffer (Millipore 20-188) at ambient temperature for 10 minutes. 10 μl fluorescent alkaline phosphatase substrate (AttoPhos, Promega S1000) was added to lysates and incubated an additional 10 minutes before measuring the fluorescence (Excitation 450 nm/Emission 580 nm) on a BioTek Synergy Neo2 stacking microplate reader. Plates were processed and relative fluorescence raw values measured in stacks of 10-20. The data were processed using Collaborative Drug Discovery web-based software (CDD Vault) to determine Z score calculated on DMSO control wells and percent activation normalized against positive and negative controls (NPA). Cherry-picked hit candidates were re-tested in concentration response experiments, from which 4 candidates were chosen and purchased for further testing from either ChemBridge or Enamine, based on availability.
(§3) We also purchased a library of 154 structural chemical analogs assembled by ChemBridge Corp. from available screening library compounds.

[2] = test system: alkaline phosphatase (ALP); settings: 154-analog library, 10 μM, C2C12, duplicate
From the text: as §1, §2, §3

| Compound | activation at 10 µM [1] [%] | RFU Score (10 μM) [2] |
| --- | --- | --- |
| Cc1cc(C)c2[nH]c(=O)c(CN3CCCC(CS(C)(=O)=O)C3)cc2c1 (stereo not drawn) [RU-0424457] | 0.13 | 285 |
| Cc1cc(C)c2[nH]c(=O)c(CN3CCCC(N4CCCC4=O)C3)cc2c1 (stereo not drawn) [RU-0424458] | 0.87 | 306 |
| Cc1cc(C)c2[nH]c(=O)c(CN(C)Cc3noc(C4CC4)n3)cc2c1 [RU-0424459] | 3.58 | 383 |
| O=C(c1[nH]cnc1-c1ccccc1)N1CCC(O)(CO)CC1 [RU-0424460] | 5.19 | 429 |
| Cc1cc(C)c2[nH]c(=O)c(-c3nccn3[C@@H]3CS(=O)(=O)C[C@H]3O)cc2c1 [RU-0424461] | 4.15 | 399 |
| Cc1cc(C)c2[nH]c(=O)c(C3CC(=O)NCc4nc5ccccn5c43)cc2c1 (stereo not drawn) [RU-0424462] | 7.81 | 503 |
| CC1(C2CCN(C(=O)c3[nH]cnc3-c3ccccc3)CC2)NC(=O)NC1=O (stereo not drawn) [RU-0424463] | 4.96 | 422 |
| CCCN(Cc1nccn1C)C(=O)c1[nH]cnc1-c1ccccc1 [RU-0424464] | 1.72 | 330 |
| Cc1cc(C)c2[nH]c(=O)c(-c3nccn3Cc3ccccn3)cc2c1 [RU-0424465] | 5.14 | 427 |
| Cn1cnnc1Sc1ccc(-c2[nH]cnc2-c2ccccc2)o1 [RU-0424466] | 8.64 | 527 |
| CO[C@H]1CN(C(=O)c2[nH]cnc2-c2ccccc2)CC[C@H]1N [RU-0424467] | 7.99 | 508 |
| COc1ncccc1-n1ccnc1-c1cc2cc(C)cc(C)c2[nH]c1=O [RU-0424468] | 7.97 | 508 |
| Cc1cc(C)c2[nH]c(=O)c(CN(C)Cc3cc(-c4cccnc4)no3)cc2c1 [RU-0424469] | 8.96 | 536 |
| O=C1OCC2(CCN(C(=O)c3[nH]cnc3-c3ccccc3)CC2)O1 [RU-0424470] | 7.58 | 497 |
| Cc1cc(C)c2[nH]c(=O)c(CN3CCCC4(C3)CN(C)C(=O)O4)cc2c1 (stereo not drawn) [RU-0424471] | 8.55 | 524 |
| COc1ccccc1N1CCN(C(=O)c2[nH]cnc2-c2ccccc2)CC1=O [RU-0424472] | 4.08 | 397 |
| CCNC(=O)[C@@H]1CCCN1Cc1cc2cc(C)cc(C)c2[nH]c1=O [RU-0424473] | 6.63 | 470 |
| Cc1cc(C)c2[nH]c(=O)c(C3c4nc[nH]c4CCN3Cc3ccco3)cc2c1 (stereo not drawn) [RU-0424474] | 10 | 566 |
| O=C(Nc1cnc2n1CCCC2)c1[nH]cnc1-c1ccccc1 [RU-0424475] | 6.39 | 491 |
| Cc1cc(C)c2[nH]c(=O)c(CN3C[C@H]4CC[C@@H](C3)N(C)C4=O)cc2c1 [RU-0424476] | 8.41 | 520 |
| CN(C)C1CCN(C(=O)c2cccc(-c3[nH]cnc3-c3ccccc3)c2)C1 (stereo not drawn) [RU-0424477] | 6.59 | 469 |
| CCC(C)Sc1ccc(-c2[nH]cnc2-c2ccccc2)cn1 (stereo not drawn) [RU-0424478] | 2.79 | 361 |

| Compound | activation at 10 µM [1] [%] | RFU Score (10 μM) [2] |
| --- | --- | --- |
| CCN(CCN(C)C)C(=O)c1cccc(-c2[nH]cnc2-c2ccccc2)c1 [RU-0424479] | 8.57 | 525 |
| CC(C)(O)C#Cc1ccc(-c2[nH]cnc2-c2ccccc2)cc1 [RU-0424480] | 10.4 | 575 |
| O=C(O)Cc1cc(C2CCN(C(=O)c3[nH]cnc3-c3ccccc3)CC2)[nH]n1 [RU-0424481] | 8.62 | 526 |
| COc1cccc(-c2[nH]cnc2-c2ccccc2)c1OCCCn1ccnc1 [RU-0424482] | 10.1 | 567 |
| CO[C@@H]1CCOC[C@H]1NC(=O)c1[nH]cnc1-c1ccccc1 [RU-0424483] | 7.37 | 491 |
| Cc1nc(C2CCCN(C(=O)c3[nH]cnc3-c3ccccc3)C2)no1 (stereo not drawn) [RU-0424484] | 1.72 | 330 |
| CCc1cn[nH]c1C1CCN(C(=O)c2[nH]cnc2-c2ccccc2)CC1 [RU-0424485] | 8.24 | 515 |
| O=C(O)C1CN(C(=O)c2[nH]cnc2-c2ccccc2)CCN1 (stereo not drawn) [RU-0424486] | 5.51 | 438 |
| Cc1cc(C)c2[nH]c(=O)c(CN(Cc3cccnc3)C3CC3)cc2c1 [RU-0424487] | 7.72 | 501 |
| Cc1cc(C)c2[nH]c(=O)c(CN3CCc4[nH]cnc4C3C(=O)O)cc2c1 (stereo not drawn) [RU-0424488] | 6.37 | 462 |
| O=C(c1[nH]cnc1-c1ccccc1)N1CCC(Cc2cccnc2)CC1 [RU-0424489] | 9.48 | 551 |
| O=C(N[C@H]1CC[C@H]1NC1CCOCC1)c1[nH]cnc1-c1ccccc1 [RU-0424490] | 5.91 | 449 |
| Cc1cc(C)c2[nH]c(=O)c(CN3C[C@@H]4CCN(C)[C@@H]4C3)cc2c1 [RU-0424491] | 7.63 | 498 |
| Cc1cc(C)c2[nH]c(=O)c(-c3nccn3CCSc3cnn[nH]3)cc2c1 [RU-0424492] | 6.11 | 455 |
| CC1(C#N)CCN(C(=O)c2ccc(-c3[nH]cnc3-c3ccccc3)cc2)CC1 [RU-0424493] | 9.53 | 551 |
| COCC1(N(C)C(=O)c2ccc(-c3[nH]cnc3-c3ccccc3)cc2)CC1 [RU-0424494] | 7.74 | 501 |
| Cc1cc(C)c2[nH]c(=O)c(CN3[C@@H]4CC[C@H]3C[C@@H](O)C4)cc2c1 [RU-0424495] | 7.21 | 486 |
| Cc1ccnc(CC(C)N(C)Cc2cc3cc(C)cc(C)c3[nH]c2=O)c1 (stereo not drawn) [RU-0424496] | 8.27 | 516 |
| O=C(O)CNc1cc(-c2[nH]cnc2-c2ccccc2)c2cc[nH]c2n1 [RU-0424497] | 5.93 | 450 |
| Cc1cc(C)c2[nH]c(=O)c(CN(C)CCn3ccnc3C)cc2c1 [RU-0424498] | 7.21 | 486 |
| Cc1cc(C)c2[nH]c(=O)c(CN3CC(c4ccccn4)C3)cc2c1 [RU-0424499] | 7.62 | 498 |
| Cc1cc(C)c2[nH]c(=O)c(CN3CCC(O)(CN(C)C)C3)cc2c1 (stereo not drawn) [RU-0424500] | 8.52 | 523 |

| Compound | activation at 10 µM [1] [%] | RFU Score (10 μM) [2] |
| --- | --- | --- |
| Cc1cc(C)c2[nH]c(=O)c(CN3C[C@H](O)C[C@H]3C(=O)O)cc2c1 [RU-0424501] | 7.25 | 487 |
| COCCCN1CCN(Cc2cc3cc(C)cc(C)c3[nH]c2=O)CC1 [RU-0424502] | 7.78 | 502 |
| CO[C@@H]1CC[C@@]2(OC)CCN(C(=O)c3[nH]cnc3-c3ccccc3)[C@H]2C1 [RU-0424503] | 5.45 | 436 |
| N#Cc1ccccc1-c1ccc(-c2[nH]cnc2-c2ccccc2)o1 [RU-0424504] | 0.96 | 309 |
| O=C(c1[nH]cnc1-c1ccccc1)N1CCc2onc(-c3cccc(F)c3)c2C1 [RU-0424505] | 1.56 | 326 |
| Cc1cc(C)c2[nH]c(=O)c(CN3CCCC(N(C)C)CC3)cc2c1 (stereo not drawn) [RU-0424506] | 2.9 | 364 |
| O=C(c1[nH]cnc1-c1ccccc1)N1CCC2(CCCO2)CC1 [RU-0424507] | 2.99 | 366 |
| Cc1cc(C)c2[nH]c(=O)c(CN(C)C(C)C(=O)N(C)C)cc2c1 (stereo not drawn) [RU-0424508] | 7.85 | 504 |
| Cc1cc(C)c2[nH]c(=O)c(CN(C)CCCn3cccn3)cc2c1 [RU-0424509] | 7.19 | 486 |
| Cc1cc(C)c2[nH]c(=O)c(CN(C)Cc3cnccn3)cc2c1 [RU-0424510] | 7.14 | 484 |
| Nc1nnc(C2CCN(C(=O)c3[nH]cnc3-c3ccccc3)CC2)[nH]1 [RU-0424511] | 6.54 | 467 |
| O=C(c1[nH]cnc1-c1ccccc1)N1CCOC(C(F)(F)F)C1 (stereo not drawn) [RU-0424512] | 6.12 | 455 |
| CO[C@@]12CC[C@H](O)C[C@@H]1N(C(=O)c1[nH]cnc1-c1ccccc1)CC2 [RU-0424513] | 5.42 | 435 |
| CCCn1cc(NC(=O)Cn2cc(-c3[nH]cnc3-c3ccccc3)cn2)nn1 [RU-0424514] | 3.69 | 386 |
| Cc1cc(C)c2[nH]c(=O)c(CN(C)CCc3cnn(C)c3)cc2c1 [RU-0424515] | 1.16 | 314 |
| O=C(c1[nH]cnc1-c1ccccc1)N1CCCC(c2ccncn2)C1 (stereo not drawn) [RU-0424516] | 3.89 | 392 |
| CNC(=O)[C@@H]1C[C@H](N)CN1Cc1cc2cc(C)cc(C)c2[nH]c1=O [RU-0424517] | 8.64 | 527 |
| Cc1cc(C)c2[nH]c(=O)c(-c3nccn3Cc3ccco3)cc2c1 [RU-0424518] | 7.14 | 484 |
| O=C(NCc1nc(-c2cnccn2)n[nH]1)c1[nH]cnc1-c1ccccc1 [RU-0424519] | 9.84 | 561 |
| CNC(=O)CC1C(=O)NCCN1Cc1cc2cc(C)cc(C)c2[nH]c1=O (stereo not drawn) [RU-0424520] | 8.81 | 532 |
| Cc1noc(C(C)N(C)C(=O)c2[nH]cnc2-c2ccccc2)n1 (stereo not drawn) [RU-0424521] | 11.3 | 604 |
| CO[C@H]1CC[C@@]2(OC)CCN(C(=O)c3[nH]cnc3-c3ccccc3)[C@H]2C1 [RU-0424522] | 6.21 | 458 |

From patent publication US11478466B2, “Small molecule promoting osteoblast differentiation” (Cornell University, priority 2019, dated 2022)
